The source of these data is EP4806894A1, “TNAP INHIBITORY COMPOUND AND USE THEREOF” (Rednvia Co., Ltd., priority 2023, dated 2025).

For orientation: IC50 means the concentration that inhibits the measured activity by half. As a reminder, the inhibition is the percentage by which the read-out fell short of the control.

Counter-ions that a name gives are not always drawn.

The target in one assay is T1, TNAP (Homo sapiens, UniProt P05186).
T1 sequence (P05186 18-502 limits assumed): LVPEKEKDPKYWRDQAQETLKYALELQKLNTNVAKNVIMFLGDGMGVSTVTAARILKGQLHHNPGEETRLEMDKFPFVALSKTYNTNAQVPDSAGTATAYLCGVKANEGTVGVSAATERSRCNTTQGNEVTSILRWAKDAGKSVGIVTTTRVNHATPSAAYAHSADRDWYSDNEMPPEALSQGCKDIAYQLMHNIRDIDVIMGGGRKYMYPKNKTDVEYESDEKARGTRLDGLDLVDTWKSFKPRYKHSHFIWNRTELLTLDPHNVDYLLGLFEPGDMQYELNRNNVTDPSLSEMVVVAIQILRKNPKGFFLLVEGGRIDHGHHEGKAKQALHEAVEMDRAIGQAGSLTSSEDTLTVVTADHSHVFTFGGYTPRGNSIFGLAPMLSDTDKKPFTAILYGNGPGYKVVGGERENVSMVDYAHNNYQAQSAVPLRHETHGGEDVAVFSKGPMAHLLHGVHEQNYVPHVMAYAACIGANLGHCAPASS
The experiment in a line: TNAP inhibitory activity, colorimetric assay (alkaline phosphatase assay kit ab83369, pNPP substrate). The following applies: TNAP enzyme, 2 hours at room temperature, absorbance 405 nm. In kind it is biochemical.

For another assay, the system named is saos-2 cells. The experiment in a line: Anticalcification efficacy in saos-2 cells (osteogenic medium, Alizarin Red staining). Format: cell-based. The settings on record: Homo sapiens, 168 h, test compound 1 µM, 7 days osteogenic medium, Alizarin Red absorbance 540 nm, read-out: calcification inhibition. The essentials:
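Saos-2 cells at 80–90% confluence induced for 7 days in osteogenic medium (DMEM, 100 nM dexamethasone, 10 mM β-glycerophosphate, 0.05 mM ascorbic acid), compound (0.5, 1, 5, 10 […]) added with each medium change. Alizarin Red staining eluted with cetylpyridinium chloride, A540 read; inhibition taken against OM-only absorbance.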

On to `COc1ccc(-c2cnn(C3CCN(C)CC3)c2)cc1S(=O)(=O)Nc1cnc2c(c1)C(=O)NCC2` [Example 65, 2-methoxy-5-(1-(1-methylpiperidine-4-yl)-1H-pyrazole-4-yl)-N-(5-oxo-5,6,7,8-tetrahydro-1,6-naphthyridine-3-yl)benzenesulfonamide], for which the IC50 against TNAP was at least 1 µM. The inhibition at 1 µM with saos-2 cells was below 0%.
`COc1ccc(Cl)cc1S(=O)(=O)Nc1cnc2c(c1)CN(C(=O)NC(C)C)CC2` [Example 104, 3-((5-chloro-2-methoxyphenyl)sulfonamido)-N-isopropyl-7,8-dihydro-1,6-naphthyridine-6(5H)-carboxamide]: at TNAP, the concentration for half-maximal inhibition (IC50) lay within 0.01 to 0.1 µM. The inhibition at 1 µM with saos-2 cells is at least 50%.
`O=C1NCc2ncc(NS(=O)(=O)c3cc(Cl)cc4c3OCC4)cc21` [Example 20, 5-chloro-N-(5-oxo-6,7-dihydro-5H-pyrrolo[3,4-b]pyridine-3-yl)-2,3-dihydrobenzofuran-7-sulfonamide] had an IC50 against TNAP of at least 1 µM. Besides, the inhibition at 1 µM in the assay with saos-2 cells was below 0%.
At TNAP, `COc1ccc(Cl)cc1S(=O)(=O)Nc1cnc2c(c1)CN(C(=O)NCC(F)F)CC2` [Example 107, 3-((5-chloro-2-methoxyphenyl)sulfonamido)-N-(2,2-difluoroethyl)-7,8-dihydro-1,6-naphthyridine-6(5H)-carboxamide] showed a 50% inhibitory concentration (IC50) of 0.01 to 0.1 µM. The inhibition at 1 µM in the assay with saos-2 cells is at least 50%.
Taken in the same sequence, the figures for `COc1ccc(F)cc1S(=O)(=O)Nc1cnc2c(c1)C(=O)NCCC2` [Example 15, 5-fluoro-2-methoxy-N-(5-oxo-6,7,8,9-tetrahydro-5H-pyrido[3,2-c]azepine-3-yl)benzenesulfonamide] were 0.1 to 1 µM and at least 50%.
`CCOC(=O)N1CCc2ncc(NS(=O)(=O)c3cc(Cl)ccc3OC)cc2C1` [Example 96, ethyl3-((5-chloro-2-methoxyphenyl)sulfonamido)-7,8-dihydro-1,6-naphthyridine-6(5H)-carboxylate] displayed an IC50 at TNAP of 0.01 to 0.1 µM. The inhibition at 1 µM with saos-2 cells was at least 50%.
Take `O=C1COc2ccc(S(=O)(=O)Nc3cnc4c(c3)C(=O)NCC4)cc2N1` [Example 25, 3-oxo-N-(5-oxo-5,6,7,8-tetrahydro-1,6-naphthyridine-3-yl)-3,4-dihydro-2H-benzo[b][1,4]oxazine-6-sulfonamide]: the IC50 against TNAP is at least 1 µM. For the same compound, the inhibition at 1 µM in the assay with saos-2 cells was below 0%.
In turn, `COc1ccc(-c2cnn(C3CCOCC3)c2)cc1S(=O)(=O)Nc1cnc2c(c1)C(=O)NCC2` [Example 76, 2-methoxy-N-(5-oxo-5,6,7,8-tetrahydro-1,6-naphthyridine-3-yl)-5-(1-(tetrahydro-2H-pyran-4-yl)-1H-pyrazole-4-yl)benzenesulfonamide] had an IC50 on TNAP of 0.1 to 1 µM. Besides, the inhibition at 1 µM in the assay on saos-2 cells is at least 50%.
In the case of `COc1ccc(-c2ccc(CCC(=O)O)cc2)cc1S(=O)(=O)Nc1cnc2c(c1)C(=O)NCC2` [Example 50, 3-(4'-methoxy-3'-(N-(5-oxo-5,6,7,8-tetrahydro-1,6-naphthyridine-3-yl)sulfamoyl)-[1,1'-biphenyl]-4-yl)propanoic acid], on TNAP, the IC50 lay within 0.01 to 0.1 µM. For the same compound, the inhibition at 1 µM in the assay with saos-2 cells was at least 50%.
Taken in the same sequence, the figures for `COc1ccc(C2=CCCOC2)cc1S(=O)(=O)Nc1cnc2c(c1)C(=O)NCC2` [Example 62, 5-(5,6-dihydro-2H-pyran-3-yl)-2-methoxy-N-(5-oxo-5,6,7,8-tetrahydro-1,6-naphthyridine-3-yl)benzenesulfonamide] were 0.01 to 0.1 µM and at least 50%.
The compound `COc1ccc(Cl)cc1S(=O)(=O)Nc1cnc2c(c1)CN(c1ncccn1)CC2` [Example 114, 3-5-chloro-2-methoxy-N-(6-(pyrimidine-2-yl)-5,6,7,8-tetrahydro-1,6-naphthyridine-3-yl)benzenesulfonamide] gave an IC50 against TNAP of 0.01 to 0.1 µM. In addition, in the assay on saos-2 cells, the inhibition at 1 µM is at least 50%.
The matching figures for `O=C1NCCc2ncc(NS(=O)(=O)c3cc(Cl)cc4c3OCC4)cc21` [Example 22, 5-chloro-N-(5-oxo-5,6,7,8-tetrahydro-1,6-naphthyridine-3-yl)-2,3-dihydrobenzofuran-7-sulfonamide]: 0.1 to 1 µM and at least 50%.
Turning to `COc1ccc(-c2cnn(CCO)c2)cc1S(=O)(=O)Nc1cnc2c(c1)C(=O)NCC2` [Example 80, 5-(1-(2-hydroxyethyl)-1H-pyrazole-4-yl)-2-methoxy-N-(5-oxo-5,6,7,8-tetrahydro-1,6-naphthyridine-3-yl)benzenesulfonamide], the half-inhibitory concentration (IC50) on TNAP lay in the range of 0.1 to 1 µM. Moreover, the inhibition at 1 µM in the assay with saos-2 cells was at least 50%.
The matching figures for `O=C(O)Cc1ccc(-c2ccc(F)cc2S(=O)(=O)Nc2cnc3c(c2)C(=O)NCC3)cc1` [Example 35, 2-(4'-fluoro-2'-(N-(5-oxo-5,6,7,8-tetrahydro-1,6-naphthyridine-3-yl)sulfamoyl)-[1,1'-biphenyl]-4-yl)acetic acid]: at most 0.01 µM and at least 50%.
On TNAP, `O=C1NCc2ncc(NS(=O)(=O)c3cccc4c3OCC4)cc21` [Example 18, N-(5-oxo-6,7-dihydro-5H-pyrrolo[3,4-b]pyridine-3-yl)-2,3-dihydrobenzofuran-7-sulfonamide] registered an IC50 of at least 1 µM. The inhibition at 1 µM in the assay on saos-2 cells is below 0%.
Taken in the same sequence, the figures for `COc1ccc(Br)cc1S(=O)(=O)Nc1cnc2c(c1)C(=O)NC2` [Example 2, 5-bromo-2-methoxy-N-(5-oxo-6,7-dihydro-5H-pyrrolo[3,4-b]pyridine-3-yl)benzenesulfonamide] were 0.01 to 0.1 µM and at least 50%.
With `COc1ccc(C2=CCNCC2)cc1S(=O)(=O)Nc1cnc2c(c1)C(=O)NCC2` [Example 53, 2-methoxy-N-(5-oxo-5,6,7,8-tetrahydro-1,6-naphthyridine-3-yl)-5-(1,2,3,6-tetrahydropyridine-4-yl)benzenesulfonamide hydrochloride], at TNAP, the half-inhibitory concentration (IC50) is 0.1 to 1 µM. In the assay with saos-2 cells, the inhibition at 1 µM was in the range of 0 to 50%.
At TNAP, `COc1ccc(Br)cc1S(=O)(=O)Nc1cnc2c(c1)CN(C(=O)NCC(F)F)CC2` [Example 108, 3-((5-bromo-2-methoxyphenyl)sulfonamido)-N-(2,2-difluoroethyl)-7,8-dihydro-1,6-naphthyridine-6(5H)-carboxamide] displayed a concentration for half-maximal inhibition (IC50) of 0.01 to 0.1 µM. Also, in the assay on saos-2 cells, the inhibition at 1 µM was at least 50%.
Consider `COc1ccc(-c2cnn(C3CCCCO3)c2)cc1S(=O)(=O)Nc1cnc2c(c1)C(=O)NCC2` (centres unmarked) [Example 54, 2-methoxy-N-(5-oxo-5,6,7,8-tetrahydro-1,6-naphthyridine-3-yl)-5-(1-(tetrahydro-2H-pyran-2-yl)-1H-pyrazole-4-yl)benzenesulfonamide], for which the half-maximal inhibitory concentration (IC50) against TNAP is 0.1 to 1 µM. Further, the inhibition at 1 µM in the assay with saos-2 cells was at least 50%.
